Reference: patent US20240197729A1, “ALK-5 Inhibitors and Uses Thereof” (Sumitomo Pharma Oncology, Inc., priority 2021, published 2024)
Like-named read-outs stand apart in the source and are kept apart here.

Legend:
JAK signaling = test: JAK selectivity assay, HEK blue IL-12 reporter; type: cell-based; details: 12.5 ng/ml IL-12, 24 h
Method: The cells were purchased from Invivogen (Catalog Nr: hkb-il12) and maintained according to vendor instructions. On the day of the experiment, cells were harvested by repeated tapping of the flask to shake loose the cells attached to the bottom of the flask. Then, cells were harvested, washed and resuspended in DMEM media supplemented with 10% fetal calf serum. 30 Microliters of cell suspension was seeded into a 384-well tissue culture-coated plate containing approximately 10,000 total cells. […] Using the ECHO “Dose Response” software, the test compound was added in duplicate wells with a 3-fold dilution curve. DMSO was back-filled to normalize the DMSO across all wells. […] After 30 minutes of incubation at room temperature, the optical density was measured at 620 nanometer using the Perkin Elmer Envision plate reader. A color change can be detected at this wavelength when secreted alkaline phosphatase, which is triggered by IL-12 signaling, is present in the supernatant. […]

[1] = test system: phospho-SMAD-2 (Ser465/Ser467); test: A549 xenograft assay, p-SMAD2; type: in vivo, mice; details: 75 mg/kg per oral gavage, tumors 4 h after dosing
From the text: (§1) To test compounds for inhibition of in vivo on-target activity (ALK5/TGF-bR1 inhibition) as well as potential Janus Kinase (JAK) signaling off-target activity, the A549 murine xenograft model was utilized. An ALK5 inhibitor (e.g., vactosertib) is expected to reduce the amount of the TGF-beta signaling molecule phospho-SMAD-2 (pSMAD2) in the A549 xenograft cells. The TGF-beta-mediated phosphorylation of SMAD2 in A549 cells takes place at amino acid residue four hundred and sixty-five and four hundred and sixty-seven (both are serine residues). A JAK inhibitor (e.g., ruxolitinib) is expected to reduce the phosphorylation of signal transducer and activator of transcription (STAT) proteins such as STAT3 at amino acid residue 705 (tyrosine).
(§2) At eight weeks of age, female athymic nude mice (purchased from Charles River) were injected with approximately 3.5 million A549 cells (ATCC, CCL-185). Specifically, cells were harvested and resuspended in plain RPMI media (no phenol red added) and Matrigel (Corning 356237) at a one to one ratio, and two hundred-microliters were injected into the right hind flank of each mouse. Tumors were measured every three days by caliper and as tumors reached an average of seventy-eighty millimeters cubed, mice were randomized in groups of three. All compounds were resuspended in 1-methyl-2-pyrrolidinone (Sigma 494496) (10%) plus 20% Solutol (Sigma 42966) in water (90%). Vactosertib and ruxolitinib were included as controls as ALK5 signaling inhibitor and JAK signaling inhibitor, respectively. Both controls were given at seventy-five milligrams per kilogram to three mice. The drug suspensions were sonicated for fifteen minutes to generate a fine particle suspension before being given to the mice. Mice were dosed (per oral gavage) with drug at one hundred, seventy-five, fifty, or ten milligrams per kilogram, with three mice per group. A vehicle control group with three mice was used to establish the baseline level of phospho-SMAD-2 in the tumor xenograft.
(§3) Four hours after drug administration, tumors were harvested, snap frozen and stored at negative eighty degrees Celsius until further processing. The phospho-SMAD-2 levels were determined using the Bio-Plex Pro™ Phospho-Smad2 (Ser465/Ser467) Set (BioRad 171V50019M). The phospho STAT3 levels were determined using the bead/antibody set from the MILLIPLEXMAP STAT Cell Signaling Magnetic Bead 5-Plex Kit (Millipore 48-610MAG). Both phospho SMAD-2 levels and phospho STAT3 levels were normalized to ß-Tubulin (MILLIPLEX MAP ß-Tubulin Total Magnetic Bead MAPmate™, Millipore 46-713MAG) or GAPDH (MILLIPLEX MAP GAPDH Total Magnetic Bead MAPmate™, Millipore 46-667MAG) levels from each sample. All analytes were analyzed in a multiplex fashion with the Bio-Plex Pro Cell Signaling Reagent Kit (BioRad 171304006M). Briefly, frozen tumor (fifteen to thirty milligrams) was lysed in 100 μl lysis buffer, processed in bead mill tube, and centrifuged. The resulting lysate was used at 1:50 dilution for the assay according to the manufacturer's instructions. Bead suspension was analyzed using the Luminex system (MAGPIX).

p-STAT3 (Tyr 705) = test: A549 xenograft assay, p-STAT3; type: in vivo, mice
From the text: as §1, §2, §3

[2] = test system: TGF-β1-mediated αSMA expression; details: human, 73 h
Method: (§4) To test the ability of selected compounds to inhibit the TGF-β1-dependent transition of fibroblasts to myofibroblasts in a relevant disease model of IPF, an FMT assay was performed using lung fibroblasts from IPF patients. In this assay, the transition of fibroblasts to myofibroblasts is determined by the expression of the biomarker alpha smooth muscle actin (α-SMA).
(§5) Primary human bronchial fibroblasts derived from IPF patients were seeded on day zero and the media was refreshed on day two. On day five, selected compounds or controls were added at an eight-point concentration response curve starting at 10 μM (semi-log dilutions). Each drug concentration condition was evaluated in biological duplicates. […] Seventy-two hours following TGF-beta addition, the cells were fixed with formaldehyde. High content imaging evaluating cell number using the nuclear stain DAPI as well as the expression of a-SMA was performed. The following controls were run alongside the selected compounds: vactosertib and the approved IPF drug nintedanib (at an eight-point, semi-log curve with 10 μM starting concentration). As a negative control 0.1% DMSO was also used, matching the DMSO concentration in treated wells. The following calculations were used to determine cell number as well as percent inhibition (PIN) of alpha SMA expression:
(§6) • Segmentation and quantification of αSMA immunoreactivity by an HCA algorithm, with density×area (D×A) output • Data normalization of raw αSMA (D×A) to percentage inhibition (PIN) values, on a plate-to-plate basis
(§7) • DAPI fluorescence applied for HCA-based quantification of the number of imaged cells, on a plate-to-plate basis
(§8) [formula] • μn is the average numbers of nuclei of the vehicle control (TGF-β1+0.1% DMSO) • Xi is the compound number of nuclei

[3] = test system: TGF-β1-mediated αSMA expression; test: Fibroblast to myofibroblast transformation (FMT) assay; details: for IC50: Homo sapiens, Fibroblast
Method: as §4, §5, §6, §7, §8

[4] = test system: BMP-6/ALK2/Hepcidin pathway; test: ALK2 off-target assay, hepcidin mRNA in HepG2 hepatocytes; type: cell-based, human; details: HepG2, 40 ng/ml BMP-6, 3 h; read-out: IC50, hepcidin mRNA expression
Method: In this study, LDN214117 (an ALK2 inhibitor available from Selleck Chemicals S7627) was included as a positive control, and vactosertib (an ALK5 inhibitor available from MedChem Express HY-19928) was included as a negative control.
HepG2 human hepatocytes (ATCC HB-8065) were seeded in EMEM (ATCC30-2003)+10% FBS in 96-well plate and allowed to grow overnight at 5% CO2 at 37° C. The next day, cells were pre-treated with selected compounds (Compound 01, 04 or 05) or one of the control compounds at various concentrations, or with vehicle (DMSO) for one hour. Cells were then stimulated with recombinant human BMP-6 (R&D Systems 507-BP-020) at a final concentration of 40 ng/ml, in the presence of test compound or DMSO for three hours. A no-BMP-6 stimulation condition was included for baseline hepcidin level measurement.
Hepcidin mRNA expression was measured by real-time RT-PCR with Cells-to-CT 1-Step TaqMan Kit (ThermoFisher A25603) following manufacturer's instructions. GAPDH levels were measured, and served as a normalization control. Hepcidin primer: TaqMan HAMP-FAM/MGB 20×(ThermoFisher 4331182); GAPDH primer: TaqMan GAPDH-VIC/MGB 20×(ThermoFisher 4326317E). Delta-delta Ct method was used to obtain relative Hepcidin expression.
The selected compounds and control compounds LDN214117 and vactosertib were tested at drug concentrations of 20 micromolar to 1.22 nanomolar at 4-fold serial dilution. All wells contained the same DMSO concentrations. IC50 values were calculated using nonlinear regression model with GraphPad Prism software. The results of the ALK-2 off-target assay are reported in Table 3B, where “++” indicates 0.1 μM<IC50≤1 μM and “+++” indicates […].

Question: `N#CC[C@H](C1CCCC1)n1cc(-c2ncnc3[nH]ccc23)cn1` [Ruxolitinib, ruxolitinib, reference compound] was tested. Which IC50 (JAK signaling) did it give?
Answer: Its IC50 is 31 nM.

Question: And the “Average % p-SMAD2 (Ser 465/467) of vehicle” value [1]?
Answer: The value was 120%.

Question: What about the “Average % p-STAT3 (Tyr 705) of vehicle” value (p-STAT3 (Tyr 705); 75 mg/kg per oral gavage, tumors 4 h after dosing) of the same compound?
Answer: The value was 10%.

Question: And the “inhibition of the phosphorylation of STAT3 in tumor samples” value (p-STAT3 (Tyr 705); 75 milligrams per kilogram)?
Answer: The value was 90%.

Question: What does the source list for `COC(=O)c1ccc2c(c1)NC(=O)/C2=C(\Nc1ccc(N(C)C(=O)CN2CCN(C)CC2)cc1)c1ccccc1` [Nintedanib, nintedanib, reference compound]?
Answer: Potentially toxic concentration [2]: 5.0; IC50 ([3]; read-out: Average IC50 (nM), average of donors IPF03, IPF06, IPF08): 833 nM; IC50 ([3]; read-out: IC50 αSMA, donor IPF03): 600 nM; IC50 ([3]; read-out: IC50 αSMA, donor IPF06): 1500 nM; IC50 ([3]; read-out: IC50 αSMA, donor IPF08): 400 nM; IC50 ([3]; read-out: pIC50 αSMA, donor IPF03 (converted)): 631 nM; IC50 ([3]; read-out: pIC50 αSMA, donor IPF06 (converted)): 1580 nM; IC50 ([3]; read-out: pIC50 αSMA, donor IPF08 (converted)): 398 nM; Max PIN (%) ([3]; donor IPF03): 90%; Max PIN (%) ([3]; donor IPF06): 104%; Max PIN (%) ([3]; donor IPF08): 94%

Question: How did the IC50 [4] turn out when `COc1cc(-c2cc(-c3ccc(N4CCNCC4)cc3)cnc2C)cc(OC)c1OC` [LDN214117, reference compound] was run?
Answer: The IC50 was 100 to 1000 nM.
